{
  "source": "patent US20100173983A1",
  "about": "“METHOD FOR INDUCING AUTOPHAGY” (priority 2007, published 2010)",
  "key": {"[1]": {"tested_on": "OSE (normal ovarian surface epithelial cells)", "test": "Cell viability, CellTiter 96 assay, normal cells", "assay_type": "cell-based, Human", "conditions": "concentrations up to 10 μg/ml, 24 hr exposure", "experimental": "FIG. 1. Comparative cytotoxicity of dehydroequol and Compound I as described herein (Cpd 1) against normal and ovarian cancer cells: CP70 (cell line), R179, R182, R585 (primary ovarian cancer explants) and OSE (normal ovarian surface epithelial cells). […] Both compounds were tested at concentrations up to 10 μg/ml and exposed to cells for 24 hr.\nHuman EOC cell lines A2780, CP70, and OSE were propagated in RPMI plus 10% fetal bovine serum (FBS) (Gemini Bio-Products, Woodland, Calif.) at 37° C. in a 5% CO2 atmosphere. Primary EOC cells (R179, R182, R585) were isolated from malignant ovarian ascites and cultured as previously described (Kamsteeg et al., 2003). Dehydroequol and Compound 1 (Cpd 1) were obtained from Novogen (Australia). All other reagents were purchased from Sigma Chemical (St. Louis, Mo.). The pan caspase inhibitor Z-VAD-FMK was obtained from R&D Systems (Minneapolis, Minn.).\n(§1) Cell viability was evaluated using the CellTiter 96 Aqueous One Solution Cell Proliferation Assay (Promega, Madison, Wis.) according to the manufacturer's instructions. The values from the treated cells were compared with the values generated from the untreated cells and reported as percent viability. Each experiment was performed in triplicate."}, "[2]": {"tested_on": "ovarian cancer cells", "test": "Cell viability in presence of pan caspase inhibitor ZVAD-FMK", "assay_type": "cell-based, Human", "conditions": "ZVAD-FMK 0.5 μg/ml", "experimental": "FIG. 5. Comparative cell viability plots of dehydroequol (A) and Cpd 1 (B) treated cells in the presence and absence of the pan caspase inhibitor ZVAD-FMK (0.5 μg/ml).\nas §1"}, "[3]": {"tested_on": "XIAP", "test": "Western blot of R-182 cells, XIAP", "assay_type": "cell-based, Human", "conditions": "5 μg/ml over 24 hr", "from_the_text": "(§2) FIG. 8. Molecular evidence of autophagic cell death in R-182 ovarian cancer cells induced by Cpd 1. […] B, Beclin 1 binds to Bcl-2. Immunoprecipitation study using mitochondrial preparations of cells pre-treated with Cpd 1 as stated in A, and subjected to beclin 1 immunoprecitation. Immunoprecipitated fractions were washed in PBS, subjected to SDS-PAGE, blotted and then probed with a mouse anti-Bcl-2 antibody. Actin and Topo-1 were used as loading control. C, Depolarized cells resulting from over-expression of Bax and Beclin 1 following administration of Cpd 1. Cells were treated with Cpd 1 as described in A, pelleted and washed in HBSS and the cell pellet resuspended in the reaction buffer for JC-1 (Biovision, Inc. MitoCapture™ K250-100). HBSS-washed cells were analysed by flow cytometry (λexcit=488 nm and (λemit=530 nm for green fluorescence (depolarized) or 590 nm for red fluorescence (polarized). 10,000 gated events were measured with a BD FACScalibur. Results were expressed as mean±standard deviation (n=3).\n(§3) After treatment with Cpd 1, protein was extracted from cells and measured as previously described (Kamsteeg et al., 2003). For separation of the cytoplasmic and mitochondrial fractions, cell pellets were processed using the ApoAlert Cell Fractionation kit (Promega) according to the manufacturer's instructions. […]"}, "[4]": {"tested_on": "Akt", "test": "Western blot of R-182 lysates, Akt", "assay_type": "cell-based, Human", "conditions": "R-182 cells, 5 μg/ml", "from_the_text": "(§4) FIG. 10. The expression of upstream regulators of autophagy are also modulated in response to Cpd 1. […] B-actin was included as a loading control. B, Proposed mechanism of Cpd 1 induced autophagic cell death.\n(§5) After treatment with Cpd 1, protein was extracted from cells and measured as previously described (Kamsteeg et al., 2003). For separation of the cytoplasmic and mitochondrial fractions, cell pellets were processed using the ApoAlert Cell Fractionation kit (Promega) according to the manufacturer's instructions. 20 μg protein was denatured in sample buffer (2.5% sodium dodecyl sulfate [SDS], 10% glycerol, 5% β-mercapto-ethanol, 0.15 M Tris, pH 6.8, and 0.01% bromophenol blue) and subjected to 12% SDS polyacrylamide gel electrophoresis (SDS-PAGE) as previously described (Kamsteeg et al., 2003). The following antibodies and concentrations were used: mouse anti-Bax (BD Biosciences, 1:500), rabbit anti-actin (Sigma, 1:10,000), rabbit anti-cytochrome c (BD Biosciences, 1:1,000), mouse anti-Cox-4 (BD Biosciences, 1:500), rabbit anti-beclin 1 (Santa Cruz Biotechnology, 1:600), mouse anti LC3 (Nanotools, 1:500). […] Proteins were observed using enhanced chemiluminescence (Pierce, Rockford, Ill.)."}, "[5]": {"tested_on": "LC3-II", "test": "Western blot of R-182 cytoplasmic preparations, LC3-II", "assay_type": "cell-based, Human", "conditions": "R-182 cells, 5 μg/ml over 24 hr", "from_the_text": "as §2, §3"}, "[6]": {"tested_on": "endonuclease G", "test": "Western blot of R-182 nuclear preparations, endonuclease G", "assay_type": "cell-based, Human", "conditions": "R-182 cells, 5 μg/ml over 24 hr", "from_the_text": "as §2, §3"}, "[7]": {"tested_on": "S6K", "test": "Western blot of xenograft tumour extracts, S6K phosphorylation", "assay_type": "in vivo, SCID mice", "conditions": "tumour-bearing mice dosed with Cpd 1, compared to control", "experimental": "FIG. 11. Cpd 1 markers of autophagy observed in in vitro studies are also present in vivo. […] T-S6K served as loading control.\nA downstream target of mTOR is the ribosomal protein S6K kinase thought to have a role in tumour invasiveness, motility and angiogenesis as well as other degenerative diseases such as diabetes (Dann et al., 2007). […] Tumour tissue was homogenised in lysis buffer containing 1% Nonidet P-40, 0.1% SDS, 0.5% deoxycholate, 150 mM NaCl, 50 mM Tris-HCl pH7.5, 1 mM EDTA, 1 mM PMSF and protease inhibitors (Roche) on ice for 30 minutes. After centrifugation at 15,000×g for 15 minutes, soluble extract was were aliquoted into a separate tube, protein content assayed by the BCA method (Pierce), and 50 μg protein loaded on SDS-PAGE gels. Proteins were electrophoretically transferred to PVDF membranes (Millipore Immobilon P) and the membranes were probed with antibodies specific to p-S6K and t-S6K (LifeSpan Bioscience). The blots were developed on X-ray films using HRP-conjugated secondary antibodies and a chemiluminescent substrate (ECL, Amersham, N.Y.)."}, "[8]": {"tested_on": "mTOR", "test": "Western blot of R-182 lysates, mTOR", "assay_type": "cell-based, Human", "from_the_text": "as §4, §5"}},
  "data": [
    {"smiles": "COc1ccc([C@H]2c3ccc(O)c(C)c3OC[C@H]2c2ccc(O)cc2)cc1", "note": "(stereo in doubt) [Cpd 1, 3-(4-hydroxyphenyl)-4-(4-methoxyphenyl)-8-methylchroman-7-ol]", "values": [
      {"measurement": "toxicity against normal OSE cells", "setting": "[1]", "result": "some toxicity"},
      {"measurement": "cell death in the presence of pan caspase inhibitor ZVAD-FMK", "setting": "[2]", "result": "cell death proceeded"},
      {"measurement": "XIAP expression", "setting": "[3]", "result": "remains unchanged"},
      {"measurement": "Akt phosphorylation (p-Akt)", "setting": "[4]", "result": "reduced up to 120 minutes post exposure"},
      {"measurement": "total Akt (t-Akt) expression", "setting": "[4]", "result": "remained unchanged"},
      {"measurement": "LC3-II expression", "setting": "[5]", "result": "increased over time"},
      {"measurement": "endonuclease G in nuclear preparations", "setting": "[6]", "result": "upregulated"},
      {"measurement": "phosphorylation status of S6K (S6K-P) in tumour extracts", "setting": "[7]", "result": "reduced compared to control"},
      {"measurement": "mTOR expression", "setting": "[8]; R-182 cells, 5 μg/ml", "result": "reduced up to 120 minutes post exposure"},
      {"measurement": "phosphorylated mTOR levels in soluble extracts of cells", "setting": "[8]; cells treated in vitro, compared to control", "result": "decreased"}
    ]}
  ]
}
